{"source": "patent US20130212744A1", "about": "“METHOD OF REDUCING INSECT-VECTORED VIRAL INFECTIONS” (priority 2010, published 2013)", "format_in_all_cases": "in vivo", "details_in_all_cases": "150 g ai/hl", "key": {"[1]": {"system": "whitefly Bemisia tabaci nymphs", "assay": "Foliar use field trial on tomato, efficacy on whitefly nymphs", "method": "(§1) Two studies were carried out in Elhasanya, Egypt in 2009 on tomato plants of the variety Fayrouz with the main goal to measure efficacy on the whitefly Bemisia tabaci. The plot size was 4.8 m^2 and 6 replicates were used in the trial. Products were applied 3 times on young tomato plants at BBCH stages 14, 17 and 51 at spray intervals between 12 and 19 days. The spray volume was at the first application 350 l/ha and later 500 l/ha. The evaluation of this study was done counting the adult whiteflies (Bemisia tabaci) as well as the nymphs and the eggs in each plot. In addition to the direct whitefly effect, visual symptoms of the virus, mainly TYLCV (tomato yellow leaf curl virus) were evaluated also.\n(§2) ASM=Acibenzolar-S-methyl. WG 50=Actigard® 50WG, a water-dispersible granule with the active ingredient ASM CYNT=Cyantraniliprole. WG 40=Cyazypyr®, a water dispersable granule with the active ingredient CYNT. Results on whitefly adults. Trial 1"}, "[2]": {"system": "TYLCV (tomato yellow leaf curl virus)", "assay": "Foliar use field trial on tomato, infected leaf area by TYLC virus", "method": "as §1, §2\nEvaluation of percentage of infected leaf area by TYLC virus (average of 45 plants evaluated per treatment) Trial 1"}, "[3]": {"system": "whitefly Bemisia tabaci adults", "assay": "Foliar use field trial on tomato, efficacy on whitefly adults", "method": "as §1, §2"}}}
{"compound": "Cc1cc(C)c(C2=C(OC(=O)CC(C)(C)C)C3(CCCC3)OC2=O)c(C)c1", "note": "[Spiromesifen]", "values": [{"measurement": "% Efficacy on Nymphs", "setting": "[1]; 5DAA2, Trial 1", "result": 86, "unit": "%"}, {"measurement": "% Efficacy on Nymphs", "setting": "[1]; 5DAA2, Trial 2", "result": 86, "unit": "%"}, {"measurement": "% Efficacy on Nymphs", "setting": "[1]; 5DAA3, Trial 1", "result": 88, "unit": "%"}, {"measurement": "% Efficacy on Nymphs", "setting": "[1]; 5DAA3, Trial 2", "result": 88, "unit": "%"}, {"measurement": "% Efficacy on Nymphs", "setting": "[1]; 10DAA2, Trial 1", "result": 85, "unit": "%"}, {"measurement": "% Efficacy on Nymphs", "setting": "[1]; 10DAA2, Trial 2", "result": 85, "unit": "%"}, {"measurement": "% Efficacy on Nymphs", "setting": "[1]; 10DAA3, Trial 1", "result": 84, "unit": "%"}, {"measurement": "% Efficacy on Nymphs", "setting": "[1]; 10DAA3, Trial 2", "result": 84, "unit": "%"}, {"measurement": "% Efficacy on Nymphs", "setting": "[1]; 15DAA3, Trial 1", "result": 81, "unit": "%"}, {"measurement": "% Efficacy on Nymphs", "setting": "[1]; 15DAA3, Trial 2", "result": 81, "unit": "%"}, {"measurement": "% Efficacy on Nymphs", "setting": "[1]; 20DAA3, Trial 1", "result": 76, "unit": "%"}, {"measurement": "% Efficacy on Nymphs", "setting": "[1]; 20DAA3, Trial 2", "result": 76, "unit": "%"}, {"measurement": "% Efficacy on Nymphs Avg % C", "setting": "[1]; Avg, Trial 1", "result": 83, "unit": "%"}, {"measurement": "% Infected Surface area with virus / plant", "setting": "[2]; 5DAA2, Trial 1", "result": 1.1, "unit": "%"}, {"measurement": "% Infected Surface area with virus / plant", "setting": "[2]; 5DAA2, Trial 2", "result": 1.1, "unit": "%"}, {"measurement": "% Infected Surface area with virus / plant", "setting": "[2]; 5DAA3, Trial 1", "result": 0.8, "unit": "%"}, {"measurement": "% Infected Surface area with virus / plant", "setting": "[2]; 5DAA3, Trial 2", "result": 0.8, "unit": "%"}, {"measurement": "% Infected Surface area with virus / plant", "setting": "[2]; 10DAA3, Trial 1", "result": 7.1, "unit": "%"}, {"measurement": "% Infected Surface area with virus / plant", "setting": "[2]; 10DAA3, Trial 2", "result": 7.1, "unit": "%"}, {"measurement": "% Infected Surface area with virus / plant", "setting": "[2]; 15DAA3, Trial 1", "result": 8.8, "unit": "%"}, {"measurement": "% Infected Surface area with virus / plant", "setting": "[2]; 15DAA3, Trial 2", "result": 8.8, "unit": "%"}, {"measurement": "% Infected Surface area with virus / plant", "setting": "[2]; 20DAA3, Trial 1", "result": 11.1, "unit": "%"}, {"measurement": "% Infected Surface area with virus / plant", "setting": "[2]; 20DAA3, Trial 2", "result": 11.1, "unit": "%"}, {"measurement": "% Infected Surface area with virus / plant", "setting": "[2]; 24DAA3, Trial 1", "result": 11.5, "unit": "%"}, {"measurement": "% Infected Surface area with virus / plant", "setting": "[2]; 24DAA3, Trial 2", "result": 11.5, "unit": "%"}, {"measurement": "% Efficacy on Adults", "setting": "[3]; 5DAA1, Trial 1", "result": 61, "unit": "%"}, {"measurement": "% Efficacy on Adults", "setting": "[3]; 5DAA1, Trial 2", "result": 61, "unit": "%"}, {"measurement": "% Efficacy on Adults", "setting": "[3]; 5DAA2, Trial 1", "result": 71, "unit": "%"}, {"measurement": "% Efficacy on Adults", "setting": "[3]; 5DAA2, Trial 2", "result": 71, "unit": "%"}, {"measurement": "% Efficacy on Adults", "setting": "[3]; 5DAA3, Trial 1", "result": 81, "unit": "%"}, {"measurement": "% Efficacy on Adults", "setting": "[3]; 5DAA3, Trial 2", "result": 81, "unit": "%"}, {"measurement": "% Efficacy on Adults", "setting": "[3]; 10DAA1, Trial 1", "result": 43, "unit": "%"}, {"measurement": "% Efficacy on Adults", "setting": "[3]; 10DAA1, Trial 2", "result": 43, "unit": "%"}, {"measurement": "% Efficacy on Adults", "setting": "[3]; 10DAA2, Trial 1", "result": 69, "unit": "%"}, {"measurement": "% Efficacy on Adults", "setting": "[3]; 10DAA2, Trial 2", "result": 69, "unit": "%"}, {"measurement": "% Efficacy on Adults", "setting": "[3]; 10DAA3, Trial 1", "result": 76, "unit": "%"}, {"measurement": "% Efficacy on Adults", "setting": "[3]; 10DAA3, Trial 2", "result": 76, "unit": "%"}, {"measurement": "% Efficacy on Adults", "setting": "[3]; 15DAA3, Trial 1", "result": 67, "unit": "%"}, {"measurement": "% Efficacy on Adults", "setting": "[3]; 15DAA3, Trial 2", "result": 67, "unit": "%"}, {"measurement": "% Efficacy on Adults", "setting": "[3]; 20DAA3, Trial 1", "result": 54, "unit": "%"}, {"measurement": "% Efficacy on Adults", "setting": "[3]; 20DAA3, Trial 2", "result": 54, "unit": "%"}, {"measurement": "% Efficacy on Adults Avg % C", "setting": "[3]; Avg, Trial 1", "result": 65, "unit": "%"}]}
